Results from patent US20250248979A1, “NOVEL GPX4 INHIBITORS AND USES THEREOF” (THE TRUSTEES OF COLUMBIA UNIVERSITY IN THE CITY OF NEW YORK, priority 2022, published 2025).
“Also recorded” adds a separate entry of the source. Read-outs that look alike come from different tables or passages of the source.

Experiments:
HT-1080 cells = test: Cellular dose response assay, HT-1080 with and without Fer-1; assay type: cell-based, human; settings: for Selectivity: ferroptosis selectivity; for ferroptosis induction / potency in HT-1080 cells, result in words: RSL3 as control
Excerpt: HT-1080 (human [Homo sapiens] […] fibrosarcoma), A-673 (human [Homo sapiens] […] Ewing's sarcoma), and SK-HEP-1 (human [Homo sapiens] […] hepatic adenocarcinoma), cells were obtained from ATCC. Huh7 (human [Homo sapiens] […] hepatocellular carcinoma), HLF (human [Homo sapiens] […] hepatocellular carcinoma), HepG2 (human [Homo sapiens] […] hepatocellular carcinoma), cells were obtained from the Cancer Cell Bank at Columbia University Irving Medical Center. HT-1080, A-673, Huh-7, and HLF cells were grown in Dulbecco's Modified Eagle Medium (DMEM) supplemented with 10% heat inactivated fetal bovine serum (HI-FBS), 1% non-essential amino acids, and 1% penicillin streptomycin. HepG2 and SK-HEP-1 cells were grown in Eagle's Minimum Essential Medium (EMEM) supplemented with 10% HI-FBS, and 1% penicillin-streptomycin. All cells were cultured at 37° C. and 5% CO2.
HT-1080, HepG2, Huh7, HLF, and SK-HEP-1 cells were seeded into opaque white 384-well plates at 1500 cells per well then incubated at 37° C. with 5% CO2 overnight. The next day, compounds of interest were dissolved in DMSO and 12-point 2-fold dilution series were prepared with and without Fer-1. Cells were treated in triplicate (final DMSO concentration of 0.4% in all wells, including DMSO-only control wells) and incubated for a further 48 hours at 37° C. and 5% CO2. Cell viability was evaluated using CellTiter-Glo (Promega G7573) and luminescence was recorded on a Victor 5 plate reader. Data were analyzed in GraphPad Prism 9 and error bars represent standard deviation values for three technical replicates in a representative experiment.

GPX4 = biological target: T1, GPX4 (Homo sapiens, UniProt P36969); test: GPX4 activity assay in cell lysates (NADPH-coupled); assay type: biochemical; design: endogenous in cells; host or cells: A-673 cell lysate
T1 sequence (P36969 1-170 isoform P36969-2): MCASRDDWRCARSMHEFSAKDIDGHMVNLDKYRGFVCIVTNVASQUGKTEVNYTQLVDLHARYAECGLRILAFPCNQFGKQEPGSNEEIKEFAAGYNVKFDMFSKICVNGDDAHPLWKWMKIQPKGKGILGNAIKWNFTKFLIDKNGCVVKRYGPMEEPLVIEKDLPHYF
Method in brief: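 Native GPX4 in lysates of A-673 cells grown with 20 nM sodium selenite; lysate preincubated with compound 45 min at 37 °C in pH 8.0 buffer with 3 mM GSH, 0.5 mM NADPH and glutathione reductase. Reaction started with phosphatidylcholine hydroperoxide; NADPH consumption followed at 340 nm over 25 min; triplicates.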

[1] = HT1080 + Fer-1, read-out: IC50 (uM) HT1080 + Fer-1
[2] = HT1080, without Fer-1, read-out: IC50 (uM) HT1080
[3] = with Fer-1, Table 10, read-out: IC50 (μM) HT1080 + Fer-1
[4] = without Fer-1, Table 10, read-out: IC50 (μM) HT1080

Structure (SMILES) | IC50 (HT-1080 cells; [1]) [µM] | IC50 (HT-1080 cells; [2]) [µM] | Selectivity (HT-1080 cells; HT1080 + Fer-1 vs HT1080) | GPX4% inhibition at 2.5 μM (GPX4; 2.5 μM) [%] | other results
COc1ccc(-c2ccc3c(C(=O)NC(C)(C)C(C)OC(=O)CCl)nn(C)c3c2)cc1Cl (racemic) [QW-736] | 7.3 | 3.7 | 2.0 | 95.3 ± 7.6 | –
Cn1nc(C(=O)NC(C)(C)COC(=O)CCl)c2ccc(-c3cc4ccccc4s3)cc21 [QW-470] | 17.3 | 1.7 | 10.2 | – | GPX4% inhibition at 5 μM (GPX4; 5 μM): 75.0 ± 5.6%
CCOCCOc1ccc(-c2ccc3c(C(=O)NC(C)(C)COC(=O)CCl)nn(C)c3c2)cc1 [QW-605] | 17.5 | 1.9 | 9.2 | 60.9 ± 15.7 | –
Cn1nc(-n2cc(C(C)(C)COC(=O)CCl)nn2)c2ccc(-c3ccc(OC(F)(F)F)c(Cl)c3)cc21 [QW-677] | 14 | 1.65 | 8.5 | 33.6 ± 6.3 | –
Cn1nc(-c2nnc(C(C)(OC(=O)CCl)C(F)(F)F)o2)c2ccc(-c3ccc4c(c3)OCO4)cc21 (centres unmarked) [QW-695] | 14.4 | 9.4 | 1.5 | −49.5 ± 28.5 | –
Cn1nc(-n2cc(C(C)(C)COC(=O)CCl)nn2)c2ccc(-c3ccc4c(c3)OCO4)cc21 [QW-696] | 8.8 | 2.9 | 3.0 | 22.3 ± 37.1 | –
COc1c(Cl)cc(-c2ccc3c(C(=O)NC(C)(C)COC(=O)CCl)nn(C)c3c2)cc1Cl [QW-711] | 31.7 | 1.4 | 22.6 | 98.4 ± 17.6 | ferroptosis induction / potency in HT-1080 cells, result in words (HT-1080 cells): less potent compared to RSL3; GPX4 inhibitory activity, result in words (GPX4): further increase the inhibitory activity
COc1c(Cl)cc(-c2ccc3c(-n4cc(C(C)(C)COC(=O)CCl)nn4)nn(C)c3c2)cc1Cl [QW-712] | 28.4 | 1.9 | 14.9 | 68.5 ± 9.4 | ferroptosis induction / potency in HT-1080 cells, result in words (HT-1080 cells): less potent compared to RSL3
Cn1nc(C(=O)NC(C)(C)COC(=O)CCl)c2ccc(-c3ccc(OC(C)(C)C)cc3)cc21 [QW-715] | 24.1 | 2.6 | 9.3 | 95.3 ± 7.6 | ferroptosis induction / potency in HT-1080 cells, result in words (HT-1080 cells): more potent compared to RSL3; GPX4 inhibition (GPX4; 2.5 μM): completely inhibited GPX4
CC(C)Oc1ncc(-c2ccc3c(C(=O)NC(C)(C)COC(=O)CCl)nn(C)c3c2)cn1 [QW-716] | 63 | 1.6 | 39.4 | 86.4 ± 7.3 | ferroptosis induction / potency in HT-1080 cells, result in words (HT-1080 cells): more potent compared to RSL3; GPX4 inhibitory activity, result in words (GPX4): substantially higher GPX4 inhibitory activities than QW-446
Cn1nc(C(=O)NC(C)(C)C(C)(C)OC(=O)CCl)c2ccc(-c3ccc(N4CCOCC4)c(Cl)c3)cc21 [QW-731] | 2.8 | 1.2 | 2.3 | 68.5 ± 9.4 | –
COc1ccc(-c2ccc3c(-n4cc(CCOC(=O)CCl)nn4)nn(C)c3c2)cc1Cl [QW-755] | 23.9 | 9.5 | 2.5 | 43.2 ± 14.9 | –
COc1ccc(-c2ccc3c(C(=O)NC(C)(C)C(C)(C)OC(=O)CCl)nn(C)c3c2)cc1Br [QW-766] | 2.5 | 1.2 | 2.1 | −31.1 ± 29.6 | –
Cn1nc(C(=O)NC(C)(C)C(C)(C)OC(=O)CCl)c2ccc(-c3ccc(OC(C)(C)C)cc3)cc21 [QW-770] | 2.2 | 1 | 2.2 | −36.4 ± 19.3 | –
COc1ccc(-c2ccc3c(C(=O)NCC(C)(C)OC(=O)CCl)nn(C)c3c2)cc1Cl [QW-774] | 8.8 | 3.7 | 2.4 | −25.3 ± 6.9 | –
Cn1nc(C(=O)NC(C)(C)C(C)(C)OC(=O)CCl)c2ccc(-c3ccc(C(F)(F)F)c(Cl)c3)cc21 [QW-786] | 5.8 | 2.4 | 2.6 | 31.7 ± 19.5 | –
COc1ccc(-c2ccc3c(-n4cc(C(C)(C)CNC(=O)CCl)nn4)nn(C)c3c2)cc1Cl [QW-792] | 5.8 | 1.1 | 5.3 | −19.6 ± 18.2 | –
COc1c(F)cc(-c2ccc3c(C(=O)NC(C)(C)C(C)(C)OC(=O)CCl)nn(C)c3c2)cc1Cl [QW-796] | 2.6 | 2.4 | 1.1 | 4.6 ± 14.4 | –
COc1c(F)cc(-c2ccc3c(-n4cc(C(C)(C)COC(=O)CCl)nn4)nn(C)c3c2)cc1Cl [QW-801] | 14.3 | 8.4 | 1.7 | 58.1 ± 9.2 | –
COc1ccc(-c2ccc3c(C(=O)NC(C)(C)C(C)(C)OC(=O)CCl)nn(Cc4ccc(Cl)cc4)c3c2)cc1Cl [QW-809] | – | – | – | – | Selectivity (HT-1080 cells; IC50 with Fer-1 / IC50): 1.5; IC50 (HT-1080 cells; [3]): 6.5 µM; IC50 (HT-1080 cells; [4]): 4.2 µM; GPX4% inhibition at 2.5 μM (GPX4; 2.5 μM, 4th generation): 34.6 ± 29.6%
COc1c(Cl)cc(-c2ccc3c(C(=O)NC(C)(C)C(C)(C)OC(=O)CCl)nn(C)c3c2)cc1C(F)(F)F [QW-813] | 3 | 2.1 | 1.4 | −17.0 ± 28.7 | –
COc1c(Cl)cc(-c2ccc3c(C(=O)NC(C)(C)COC(=O)CCl)nn(C)c3c2)cc1C(F)(F)F [QW-815] | 16.7 | 0.58 | 28.8 | 79.3 ± 5.5 | ferroptosis induction / potency in HT-1080 cells, result in words (HT-1080 cells): sub-molar range cellular activities and decreased ferroptosis selectivity
COc1ccc(-c2ccc3c(C(=O)NC(C)(C)COC(=O)CCl)nn(Cc4ccc(Cl)cc4)c3c2)cc1Cl [QW-823] | – | – | – | – | ferroptosis induction / potency in HT-1080 cells, result in words (HT-1080 cells): good potency in cell and selectivity to GPX4; also recorded: outstanding cytotoxicity with sub-molar scale; Selectivity (HT-1080 cells; IC50 with Fer-1 / IC50): 34.5; IC50 (HT-1080 cells; [3]): 11.4 µM; IC50 (HT-1080 cells; [4]): 0.33 µM; GPX4 inhibitory activity, result in words (GPX4): greater GPX4 inhibitory activity than QW-446; GPX4% inhibition at 2.5 μM (GPX4; 2.5 μM, 4th generation): 95.0 ± 13.1%
CC(C)(COC(=O)CCl)NC(=O)c1nn(Cc2ccc(Cl)cc2)c2cc(-c3ccc(N4CCOCC4)c(Cl)c3)ccc12 [QW-824] | – | – | – | – | ferroptosis induction / potency in HT-1080 cells, result in words (HT-1080 cells): good potency in cell and selectivity to GPX4; also recorded: outstanding cytotoxicity with sub-molar scale; Selectivity (HT-1080 cells; IC50 with Fer-1 / IC50): >220; IC50 (HT-1080 cells; [3]): > 40 µM; IC50 (HT-1080 cells; [4]): 0.18 µM; GPX4 inhibitory activity, result in words (GPX4): greater GPX4 inhibitory activity than QW-446; GPX4% inhibition at 2.5 μM (GPX4; 2.5 μM, 4th generation): 90.5 ± 7.4%
C=CC(=O)OCC(C)(C)NC(=O)c1nn(Cc2ccc(Cl)cc2)c2cc(-c3ccc(OC)c(Cl)c3)ccc12 [QW-831] | – | – | – | – | Selectivity (HT-1080 cells; IC50 with Fer-1 / IC50): 1.1; IC50 (HT-1080 cells; [3]): 13 µM; IC50 (HT-1080 cells; [4]): 12 µM; GPX4% inhibition at 2.5 μM (GPX4; 2.5 μM, 4th generation): 32.6 ± 61.0%
COc1ccc(-c2ccc3c(C(=O)NC(C)(C)COC(=O)C#C[Si](C)(C)C)nn(Cc4ccc(Cl)cc4)c3c2)cc1Cl [QW-832] | – | – | – | – | Selectivity (HT-1080 cells; IC50 with Fer-1 / IC50): 37.4; IC50 (HT-1080 cells; [3]): 63.6 µM; IC50 (HT-1080 cells; [4]): 1.7 µM; GPX4% inhibition at 2.5 μM (GPX4; 2.5 μM, 4th generation): 58.9 ± 9.0%
CC(C)Oc1ccc(-c2ccc3c(C(=O)NC(C)(C)COC(=O)CCl)nn(Cc4ccc(Cl)cc4)c3c2)cc1Cl [QW-841] | – | – | – | – | ferroptosis induction / potency in HT-1080 cells, result in words (HT-1080 cells): outstanding cytotoxicity with sub-molar scale; Selectivity (HT-1080 cells; IC50 with Fer-1 / IC50): 38.5; IC50 (HT-1080 cells; [3]): 28.5 µM; IC50 (HT-1080 cells; [4]): 0.74 µM; GPX4% inhibition at 2.5 μM (GPX4; 2.5 μM, 4th generation): 91.3 ± 2.0%
CSc1ccc(-c2ccc3c(C(=O)NC(C)(C)COC(=O)CCl)nn(Cc4ccc(Cl)cc4)c3c2)cc1Cl [QW-847] | – | – | – | – | Selectivity (HT-1080 cells; IC50 with Fer-1 / IC50): 9.6; IC50 (HT-1080 cells; [3]): 98.4 µM; IC50 (HT-1080 cells; [4]): 10.2 µM; GPX4% inhibition at 2.5 μM (GPX4; 2.5 μM, 4th generation): 88.5 ± 16.1%
COc1ccc(-c2ccc3c(C(=O)NC(C)(C)COC(=O)CCl)nn(Cc4cc(Cl)cc(Cl)c4)c3c2)cc1Cl [QW-851] | – | – | – | – | fold change in potency in the cell viability assay, QW-851 vs QW-446 (HT-1080 cells; benzyl vs methyl on the indazole): 10 fold; Selectivity (HT-1080 cells; IC50 with Fer-1 / IC50): >920; IC50 (HT-1080 cells; read-out: IC50 against HT1080 cell lines): 0.0435 µM; IC50 (HT-1080 cells; [3]): > 40 µM; GPX4 inhibitory activity, result in words (GPX4): greater GPX4 inhibitory activity than QW-446 at 2.5 μM concentration; GPX4% inhibition at 2.5 μM (GPX4; 2.5 μM, 4th generation): 114.9 ± 23.5%
